{"source": "patent US20200264182A1", "about": "“METHOD FOR DETECTING PROSTATE CANCER” (J-OIL MILLS, INC., priority 2017, published 2020)", "key": {"FAC binding constant": {"assay": "FAC binding constant", "conditions": "at 25° C.", "procedure": "(§1) Details of the FAC method are described in Patent Document 2 filed by some of the present applicants, for example.\n(§2) Binding constants (at 25° C.) of PhoSL, SRL, NSL and LSL belonging to the fucose α1→6 specific lectin for various sugar chains are shown in Tables 2 to 5."}, "[1]": {"assay": "FAC binding constant (Table 5 entry)", "conditions": "Table 5: sugar chain having no fucose; at 25° C.", "procedure": "as §1, §2"}, "serum fucosylated PSA": {"tested_on": "serum fucosylated PSA", "assay": "Sandwich ELISA, anti-PSA antibody and biotin-labeled lectin", "assay_type": "binding, human", "conditions": "for Δ (=A − B): reaction value of Prostate cancer 4 minus Healthy 1; for lectin reaction value B of Healthy 1: serum of Healthy 1; for lectin reaction value A of Prostate cancer 4: serum of Prostate cancer 4, GS 6 (3 + 3)", "procedure": "The anti-PSA antibody from which sugar chains had been removed was diluted to 5 μg/mL with PBS. 25 μL of this diluted solution was added to each well of an ELISA plate and allowed to stand at 37° C. for 12 hours, and then the additive solution was discarded.\n150 μL of PBS containing 0.05% Tween 20 (product name: polyoxyethylene sorbitan monolaurate, from Nacalai Tesque, Inc.) was added to each well, and then the additive solution was discarded. This manipulation was repeated three times in total.\n25 μL of 1% BSA/PBS was added to each well and allowed to stand at 37° C. for 1 hour, and then the additive solution was discarded.\n150 μL of PBS containing 0.05% Tween 20 was added to each well, and then the additive solution was discarded. This manipulation was repeated three times in total.\nTo graph a calibration curve, 25 μL of the fucosylated PSA reference standard diluted with 1% BSA/PBS to a concentration of 0 to 200 ng/mL was added to each well and allowed to stand at room temperature for 1 hour, and then the additive solution was discarded. In addition, to detect the fucosylated PSA in the serum of the subject by the lectin, 25 μL of serum of “Healthy 1” and “Prostate cancer 4” 2-fold diluted with PBS was added to each well and allowed to stand at room temperature for 1 hour, and then the additive solution was discarded.\nIn Reference Example 1, 25 μL of a biotin-labeled PhoSL diluted to 0.1 μg/mL with 0.1% BSA/PBS (pH 7.4) was added to each well and allowed to stand at 4° C. for 30 minutes, and then the additive solution was discarded. In Example 1, 25 μL of a biotin-labeled PhoSL diluted to 0.1 μg/mL with 0.1% BSA/10-fold diluted PBS+glycine-NaOH (pH 9.6) was added to each well and allowed to stand at 4° C. for 30 minutes, and then the additive solution was discarded.\n25 μL of a horseradish peroxidase (HRP)-labeled streptavidin solution (from Vector Laboratories, Inc., concentration: 0.4 μg/mL, in 1% BSA/PBS) was added to each well and allowed to stand at room temperature for 30 minutes, and then the additive solution was discarded.\n25 μL of chromogenic substrate for HRP (product name: TMB, from Kirkegaard & Perry Laboratories, Inc.) was added to each well and allowed to stand at room temperature for 10 minutes.\n25 μL of 1M phosphoric acid was added to terminate the reaction.\nAbsorbance (Ab) at 450 nm and 630 nm was measured using a plate reader, and a measurement (Ab450-630) was obtained.\nA calibration curve was graphed by plotting signals (reaction values, Ab450-630) of the fucosylated PSA reference standard with the biotin-labeled PhoSL. A Signal (Ab450-630) of the biotin-labeled PhoSL corresponding to the fucosylated PSA concentration of 10 ng/mL was defined as 10 U/mL.\nThe signals of biotin-labeled PhoSL (Ab450-630) for the serum fucosylated PSA in the subject samples A were assigned to the calibration curve to calculate reaction values (unit: U/mL).\nThe PhoSL reaction values for the subject samples A were measured by the same operation as in Example 1. From the PhoSL reaction values, an average value and a median value were determined. Furthermore, a standard cutoff value (89.7 U/mL) was used to determine a detection rate (positive rate) of the prostate cancer patients, and a false detection rate (false positive rate) of the healthy persons.\nComparative Example 2 in Table 9 indicates results of detecting the serum fucosylated PSA using AAL (AAL reaction values) in the subject samples A. Specifically, in Reference Example 1, AAL reaction values were measured in the same manner as in Reference Example 1 except that the biotin-labeled PhoSL was replaced with a biotin-labeled AAL. A standard cut-off value for the AAL reaction values was 894.8 U/mL. As in Example 2, an average value, a median value, a positive rate and a false positive rate were determined from the AAL reaction values."}}}
{"substance": "SRL: fucose α1→6 specific lectin that can be extracted from Stropharia rugosoannulata, SEQ ID No. 2", "values": [{"measurement": "Binding constant for sugar chain No. 701", "setting": "FAC binding constant; sugar chain having no fucose", "value": "<1000", "unit": "M⁻¹"}, {"measurement": "Binding constant for sugar chain No. 702", "setting": "FAC binding constant; sugar chain having no fucose", "value": "<1000", "unit": "M⁻¹"}, {"measurement": "Binding constant for sugar chain No. 703", "setting": "FAC binding constant; sugar chain having no fucose", "value": "<1000", "unit": "M⁻¹"}, {"measurement": "Binding constant for sugar chain No. 704", "setting": "FAC binding constant; sugar chain having no fucose", "value": "<1000", "unit": "M⁻¹"}, {"measurement": "Binding constant for sugar chain No. 705", "setting": "FAC binding constant; sugar chain having no fucose", "value": "<1000", "unit": "M⁻¹"}, {"measurement": "Binding constant for sugar chain No. 706", "setting": "FAC binding constant; sugar chain having no fucose", "value": "<1000", "unit": "M⁻¹"}, {"measurement": "Binding constant for sugar chain No. 707", "setting": "FAC binding constant; sugar chain having no fucose", "value": "<1000", "unit": "M⁻¹"}, {"measurement": "Binding constant for sugar chain No. 708", "setting": "FAC binding constant; sugar chain having no fucose", "value": "<1000", "unit": "M⁻¹"}, {"measurement": "Binding constant for sugar chain No. 709", "setting": "FAC binding constant; sugar chain having no fucose", "value": "<1000", "unit": "M⁻¹"}, {"measurement": "Binding constant for sugar chain No. 710", "setting": "FAC binding constant; sugar chain having no fucose", "value": "<1000", "unit": "M⁻¹"}, {"measurement": "Binding constant for sugar chain No. 711", "setting": "FAC binding constant; sugar chain having no fucose", "value": "<1000", "unit": "M⁻¹"}, {"measurement": "Binding constant for sugar chain No. 712", "setting": "FAC binding constant; sugar chain having no fucose", "value": "<1000", "unit": "M⁻¹"}, {"measurement": "Binding constant for sugar chain No. 713", "setting": "FAC binding constant; sugar chain having no fucose", "value": "<1000", "unit": "M⁻¹"}, {"measurement": "Binding constant for sugar chain No. 715", "setting": "FAC binding constant; sugar chain having no fucose", "value": "<1000", "unit": "M⁻¹"}, {"measurement": "Binding constant for sugar chain No. 716", "setting": "FAC binding constant; sugar chain having no fucose", "value": "<1000", "unit": "M⁻¹"}, {"measurement": "Binding constant for sugar chain No. 717", "setting": "FAC binding constant; sugar chain having no fucose", "value": "<1000", "unit": "M⁻¹"}, {"measurement": "Binding constant for sugar chain No. 724", "setting": "FAC binding constant; sugar chain having no fucose", "value": "<1000", "unit": "M⁻¹"}, {"measurement": "Binding constant for sugar chain No. 725", "setting": "FAC binding constant; sugar chain having no fucose", "value": "<1000", "unit": "M⁻¹"}, {"measurement": "Binding constant for sugar chain No. 732", "setting": "FAC binding constant; sugar chain having no fucose", "value": "<1000", "unit": "M⁻¹"}, {"measurement": "Binding constant for sugar chain No. 733", "setting": "FAC binding constant; sugar chain having no fucose", "value": "<1000", "unit": "M⁻¹"}, {"measurement": "Binding constant for sugar chain No. 734", "setting": "FAC binding constant; sugar chain having no fucose", "value": "<1000", "unit": "M⁻¹"}, {"measurement": "Binding constant for sugar chain No. 735", "setting": "FAC binding constant; sugar chain having no fucose", "value": "<1000", "unit": "M⁻¹"}, {"measurement": "Binding constant for sugar chain No. 736", "setting": "FAC binding constant; sugar chain having no fucose", "value": "<1000", "unit": "M⁻¹"}, {"measurement": "Binding constant for sugar chain No. 737", "setting": "FAC binding constant; sugar chain having no fucose", "value": "<1000", "unit": "M⁻¹"}, {"measurement": "Binding constant for sugar chain No. 738", "setting": "FAC binding constant; sugar chain having no fucose", "value": "<1000", "unit": "M⁻¹"}, {"measurement": "Binding constant for sugar chain No. 901", "setting": "FAC binding constant; sugar chain having no fucose", "value": "<1000", "unit": "M⁻¹"}, {"measurement": "Binding constant for sugar chain No. 902", "setting": "FAC binding constant; sugar chain having no fucose", "value": "<1000", "unit": "M⁻¹"}, {"measurement": "Binding constant for sugar chain No. 903", "setting": "FAC binding constant; sugar chain having no fucose", "value": "<1000", "unit": "M⁻¹"}, {"measurement": "Binding constant for sugar chain No. 905", "setting": "FAC binding constant; sugar chain having no fucose", "value": "<1000", "unit": "M⁻¹"}, {"measurement": "Binding constant for sugar chain No. 906", "setting": "FAC binding constant; sugar chain having no fucose", "value": "<1000", "unit": "M⁻¹"}, {"measurement": "Binding constant for sugar chain No. 907", "setting": "FAC binding constant; sugar chain having no fucose", "value": "<1000", "unit": "M⁻¹"}, {"measurement": "Binding constant for sugar chain No. 015", "setting": "FAC binding constant; sugar chain having α1→6 fucose", "value": 49000, "unit": "M⁻¹"}, {"measurement": "Binding constant for sugar chain No. 201", "setting": "FAC binding constant; sugar chain having α1→6 fucose", "value": 64000, "unit": "M⁻¹"}, {"measurement": "Binding constant for sugar chain No. 202", "setting": "FAC binding constant; sugar chain having α1→6 fucose", "value": 61000, "unit": "M⁻¹"}, {"measurement": "Binding constant for sugar chain No. 203", "setting": "FAC binding constant; sugar chain having α1→6 fucose", "value": 52000, "unit": "M⁻¹"}, {"measurement": "Binding constant for sugar chain No. 401", "setting": "FAC binding constant; sugar chain having α1→6 fucose", "value": 57000, "unit": "M⁻¹"}, {"measurement": "Binding constant for sugar chain No. 402", "setting": "FAC binding constant; sugar chain having α1→6 fucose", "value": 44000, "unit": "M⁻¹"}, {"measurement": "Binding constant for sugar chain No. 403", "setting": "FAC binding constant; sugar chain having α1→6 fucose", "value": 56000, "unit": "M⁻¹"}, {"measurement": "Binding constant for sugar chain No. 404", "setting": "FAC binding constant; sugar chain having α1→6 fucose", "value": 58000, "unit": "M⁻¹"}, {"measurement": "Binding constant for sugar chain No. 405", "setting": "FAC binding constant; sugar chain having α1→6 fucose", "value": 54000, "unit": "M⁻¹"}, {"measurement": "Binding constant for sugar chain No. 406", "setting": "FAC binding constant; sugar chain having α1→6 fucose", "value": 38000, "unit": "M⁻¹"}, {"measurement": "Binding constant for sugar chain No. 407", "setting": "FAC binding constant; sugar chain having α1→6 fucose", "value": 10000, "unit": "M⁻¹"}, {"measurement": "Binding constant for sugar chain No. 410", "setting": "FAC binding constant; sugar chain having α1→6 fucose", "value": 39000, "unit": "M⁻¹"}, {"measurement": "Binding constant for sugar chain No. 418", "setting": "FAC binding constant; sugar chain having α1→6 fucose", "value": 4300, "unit": "M⁻¹"}, {"measurement": "Binding constant for sugar chain No. 601", "setting": "FAC binding constant; sugar chain having α1→6 fucose", "value": 10000, "unit": "M⁻¹"}, {"measurement": "Binding constant for sugar chain No. 602", "setting": "FAC binding constant; sugar chain having α1→6 fucose", "value": 32000, "unit": "M⁻¹"}, {"measurement": "Binding constant for sugar chain No. 728", "setting": "[1]", "value": "<1000", "unit": "M⁻¹"}, {"measurement": "Δ (=A − B)", "setting": "serum fucosylated PSA; pH in lectin reaction 7.4", "value": 126.3, "unit": "U/mL"}, {"measurement": "Δ (=A − B)", "setting": "serum fucosylated PSA; pH in lectin reaction 9.6", "value": 217.7, "unit": "U/mL"}, {"measurement": "lectin reaction value B of Healthy 1", "setting": "serum fucosylated PSA; pH in lectin reaction 7.4", "value": 20.0, "unit": "U/mL"}, {"measurement": "lectin reaction value B of Healthy 1", "setting": "serum fucosylated PSA; pH in lectin reaction 9.6", "value": 16.8, "unit": "U/mL"}, {"measurement": "lectin reaction value A of Prostate cancer 4", "setting": "serum fucosylated PSA; pH in lectin reaction 7.4", "value": 146.3, "unit": "U/mL"}, {"measurement": "lectin reaction value A of Prostate cancer 4", "setting": "serum fucosylated PSA; pH in lectin reaction 9.6", "value": 234.5, "unit": "U/mL"}]}
